Columns and labels:
Simplexvirus = experiment: Antiviral activity against Herpes simplex virus; assay type: functional, organism-based
Human betaherpesvirus 5 = experiment: Antiviral activity against Human cytomegalovirus; assay type: functional, organism-based; settings: Human betaherpesvirus 5
[1] = tested on: Human immunodeficiency virus 1; experiment: Antiviral activity against HIV1; assay type: functional, organism-based
[2] = tested on: Human immunodeficiency virus 2; experiment: Antiviral activity against HIV2; assay type: functional, organism-based
Human alphaherpesvirus 1 = experiment: Antiviral activity against Herpes simplex virus 1; assay type: functional, organism-based; settings: Human alphaherpesvirus 1
Vaccinia virus = experiment: Antiviral activity against Vaccinia virus; assay type: functional, organism-based, Orthopoxvirus vaccinia; settings: Orthopoxvirus vaccinia
Human alphaherpesvirus 2 = experiment: Antiviral activity against Herpes simplex virus 2; assay type: functional, organism-based; settings: Human alphaherpesvirus 2
Human alphaherpesvirus 3 = experiment: Antiviral activity against Varicella zoster virus; assay type: functional, organism-based
Human gammaherpesvirus 4 = experiment: Antiviral activity against Epstein-Barr virus; assay type: functional, organism-based
Hepatitis B virus = experiment: Antiviral activity against Hepatitis B virus; assay type: functional, organism-based
Human rhinovirus sp. = experiment: Antiviral activity against Human rhinovirus; assay type: functional, organism-based
[3] = tested on: Moloney murine sarcoma virus; experiment: Antiviral activity against Moloney sarcoma virus; assay type: functional, organism-based

| Structure (SMILES) | IC50 (Human betaherpesvirus 5) [nM] | IC50 [1] [nM] | IC50 [2] [nM] | IC50 (Human alphaherpesvirus 1) [nM] | IC50 (Vaccinia virus) [nM] | IC50 (Human alphaherpesvirus 2) [nM] | IC50 (Human alphaherpesvirus 3) [nM] | IC50 (Human rhinovirus sp.) [nM] | other results |
| --- | --- | --- | --- | --- | --- | --- | --- | --- | --- |
| Cc1ccc(Cn2c(N)c(C#N)c3c(N)ncnc32)cc1 | – | – | – | – | – | – | – | – | IC50 (Simplexvirus): 60000 nM |
| Nc1nc(N)c(Cc2ccccc2)c(OCCOCP(=O)(O)O)n1 | 0.15 | 0.3 | 0.3 | 1.2 | 1.2 | 0.66 | 0.15 | – | – |
| N#CCc1c(N)nc(N)nc1OCCOCP(=O)(O)O | 0.15 | 0.3 | 0.3 | 1.2 | 1.2 | 1.2 | 0.11 | – | – |
| Nc1nc(N)n(CCOCP(=O)(O)O)c(=O)c1-c1ccccc1 | 0.15 | 0.3 | 0.3 | 1.2 | 1.2 | 1.2 | 0.15 | – | – |
| C=CCc1c(N)nc(N)n(CCOCP(=O)(O)O)c1=O | – | 0.3 | 0.3 | 1.2 | 1.2 | 0.77 | 0.15 | – | – |
| C=CCc1c(N)nc(N)nc1OCCOCP(=O)(O)O | 0.15 | 0.3 | 0.79 | 1.2 | 1.2 | 1.2 | 0.15 | – | – |
| Nc1nc(N)n(CCOCP(=O)(O)O)c(=O)c1CC(=O)O | 0.15 | 0.3 | 0.3 | 1.2 | 1.2 | 1.2 | 0.15 | – | – |
| Nc1nc(N)n(CCOCP(=O)(O)O)c(=O)c1Cc1ccccc1 | 0.15 | 0.3 | 0.3 | 1.2 | 1.2 | 1.2 | 0.15 | – | – |
| Nc1nc(N)c(-c2ccccc2)c(OCCOCP(=O)(O)O)n1 | 0.15 | 0.3 | 0.3 | 1.2 | 1.2 | 1.2 | 0.15 | – | – |
| Nc1nc(N)c(CC(=O)O)c(OCCOCP(=O)(O)O)n1 | 0.15 | 0.3 | 0.3 | 1.2 | 1.2 | 1.2 | 0.15 | – | – |
| Nc1nc2c(ncn2/C=C2\CC2(F)CO)c(=O)[nH]1 (stereo not given) | – | 100000 | – | – | – | – | 79600 | – | IC50 (Human gammaherpesvirus 4): 20000 nM; IC50 (Hepatitis B virus): 20000 nM |
| CCOC(=O)/C=C/[C@H](CCC(N)=O)NC(=O)Cn1cccc(NC(=O)OCc2ccccc2)c1=O | – | – | – | – | – | – | – | 10000 | – |
| Nc1cc(OCCOCP(=O)(O)O)ncn1 | – | – | – | 6430 | – | – | – | – | IC50 [3]: 5220 nM |
| CCOC(=O)/C=C/[C@H](C[C@@H]1CCNC1=O)NC(=O)C1=Cc2ccccc2OC1 | – | – | – | – | – | – | – | 1190 | – |
| CCOC(=O)/C=C/[C@H](C[C@@H]1CCNC1=O)NC(=O)C1=Cc2cc(Cl)ccc2OC1 | – | – | – | – | – | – | – | 160 | – |
| CCOC(=O)/C=C/[C@H](C[C@@H]1CCNC1=O)NC(=O)c1cc(-c2ccccc2)oc1C | – | – | – | – | – | – | – | 1940 | – |

| Structure (SMILES) | IC50 (Human betaherpesvirus 5) [nM] | IC50 [1] [nM] | IC50 [2] [nM] | IC50 (Human alphaherpesvirus 1) [nM] | IC50 (Vaccinia virus) [nM] | IC50 (Human alphaherpesvirus 2) [nM] | IC50 (Human alphaherpesvirus 3) [nM] | IC50 (Human rhinovirus sp.) [nM] | other results |
| --- | --- | --- | --- | --- | --- | --- | --- | --- | --- |
| CCOC(=O)/C=C/[C@H](CCC(N)=O)NC(=O)[C@H](Cc1ccccc1)n1cccc(NC(C)=O)c1=O | – | – | – | – | – | – | – | 888 | – |
| CCOC(=O)/C=C/[C@H](C[C@@H]1CCNC1=O)NC(=O)[C@H](Cc1ccccc1)n1cccc(NC(=O)OCc2ccccc2)c1=O | – | – | – | – | – | – | – | 3 | – |
| Nc1nc(O)cc(NC2CC2)n1 | – | – | – | 2.41 | – | – | – | – | IC50 [3]: 0.801 nM |
| CC(C)OP(=O)(COCCSc1cc(N)nc(N)n1)OC(C)C | – | – | 0.143 | 1.1 | – | 1.1 | 0.137 | – | – |
| CCOC(=O)/C=C/[C@H](C[C@@H]1CCNC1=O)NC(=O)C1=Cc2cc(Br)ccc2OC1 | – | – | – | – | – | – | – | 180 | – |
| Nc1nc(N)c(C2CC2)c(OCCOCP(=O)(O)O)n1 | 1.2 | 0.3 | 0.3 | 1.2 | 1.2 | 1.2 | 1.2 | – | – |
| Nc1nc(N)n(CCOCP(=O)(O)O)c(=O)c1C1CC1 | 0.15 | 0.3 | 0.3 | 1.2 | 1.2 | 0.12 | – | – | – |
| N#CCc1c(N)nc(N)n(CCOCP(=O)(O)O)c1=O | 0.15 | 0.3 | 0.3 | 1.2 | 1.2 | 1.2 | 0.084 | – | – |
| Cc1c(N)nc(N)n(CCOCP(=O)(O)O)c1=O | – | 0.3 | 0.3 | 1.2 | 1.2 | 0.12 | – | – | – |
| O=C(NCc1ccc(Cl)cc1)c1cnc2ccc(CCCO)cc2c1O | – | – | – | – | – | – | – | – | IC50 (Simplexvirus): 11000 nM |
| Cc1cn(/C=C2/CC2(F)CO)c(=O)[nH]c1=O (stereo not given) | – | 100000 | – | – | – | – | 620 | – | IC50 (Human gammaherpesvirus 4): 51700 nM; IC50 (Hepatitis B virus): 20000 nM |
| CCOC(=O)/C=C/[C@H](CCC(N)=O)NC(=O)[C@H](CC1CCCCC1)n1cccc(NC(=O)OCc2ccccc2)c1=O | – | – | – | – | – | – | – | 178 | – |
| CCOC(=O)/C=C/[C@H](CCC(N)=O)NC(=O)[C@H](Cc1ccccc1)n1cccc(NC(=O)C(C)(C)C)c1=O | – | – | – | – | – | – | – | 518 | – |
| Cc1cn(/C=C2\CC2(F)CO)c(=O)[nH]c1=O (stereo not given) | – | 100000 | – | – | – | – | 442000 | – | IC50 (Human gammaherpesvirus 4): 20000 nM; IC50 (Hepatitis B virus): 20000 nM |
| CCOC(=O)/C=C/[C@H](CCC(N)=O)NC(=O)[C@H](Cc1ccccc1)n1cccc(NC(=O)C2SCCS2)c1=O | – | – | – | – | – | – | – | 104 | – |
| CCOC(=O)/C=C/[C@H](CCC(N)=O)NC(=O)[C@H](Cc1ccc(F)c(F)c1)n1cccc(NC(=O)OCc2ccccc2)c1=O | – | – | – | – | – | – | – | 3 | – |
